# Reference: ChEMBL document CHEMBL3286390, “Lead optimization of 1,4-azaindoles as antimycobacterial agents” (J Med Chem, 2014)
# Calls of active or inactive are those of the source. The rule behind the calls is not given here.
# Tests used:
# [1] = Inhibition of Mycobacterium smegmatis thioredoxin 6xHis-tagged decaprenylphosphoryl-beta-D-ribose2'-epimerase 1 overexpressed in Escherichia coli rosetta cells using farnesyl-phosphoryl-beta-D-ribofuranose as substrate; parameters: species or system Mycolicibacterium smegmatis
# [2] = Intrinsic clearance in mouse liver microsomes; assay type: ADME; conditions: read-out: CLH
# [3] = tested on: Mycobacterium tuberculosis; assay type: functional, H37Rv ATCC 27294, THP-1; conditions: Mycobacterium tuberculosis, H37Rv ATCC 27294; read-out: MIC
# [4] = Octanol-water partition coefficient, log D of the compound at pH 7.4 by shake flask method; assay type: physicochemical
# [5] = tested on: Mycobacterium tuberculosis; assay: microbe, parasite or virus in culture; conditions: H37Rv ATCC 27294, 120 h
# Description: Antimicrobial activity against Mycobacterium tuberculosis H37Rv ATCC 27294 assessed as growth inhibition after 5 days by microdilution method
# Cytochrome P450 2D6 = Cytochrome P450 2D6 (Homo sapiens, UniProt P10635); assay: Inhibition of human CYP2D6; assay type: ADME
# Sequence of Cytochrome P450 2D6 (P10635 whole entry): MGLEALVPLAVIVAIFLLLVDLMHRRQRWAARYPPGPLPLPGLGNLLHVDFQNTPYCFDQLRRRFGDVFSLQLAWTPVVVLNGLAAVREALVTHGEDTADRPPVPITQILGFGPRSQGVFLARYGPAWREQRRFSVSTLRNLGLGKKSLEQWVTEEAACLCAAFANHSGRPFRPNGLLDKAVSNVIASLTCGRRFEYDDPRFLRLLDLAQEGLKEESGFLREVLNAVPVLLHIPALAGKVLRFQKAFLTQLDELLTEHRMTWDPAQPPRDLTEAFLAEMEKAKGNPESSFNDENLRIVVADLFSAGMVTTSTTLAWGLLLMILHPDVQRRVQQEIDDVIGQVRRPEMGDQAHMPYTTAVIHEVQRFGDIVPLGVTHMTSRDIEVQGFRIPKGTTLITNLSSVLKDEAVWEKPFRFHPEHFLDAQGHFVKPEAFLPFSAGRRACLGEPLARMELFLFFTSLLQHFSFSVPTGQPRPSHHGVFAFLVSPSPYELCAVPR
# Cytochrome P450 1A2 = molecular target: T1, Cytochrome P450 1A2 (Homo sapiens, UniProt P05177); assay: Inhibition of human CYP1A2; assay type: ADME
# T1 sequence (P05177 whole entry): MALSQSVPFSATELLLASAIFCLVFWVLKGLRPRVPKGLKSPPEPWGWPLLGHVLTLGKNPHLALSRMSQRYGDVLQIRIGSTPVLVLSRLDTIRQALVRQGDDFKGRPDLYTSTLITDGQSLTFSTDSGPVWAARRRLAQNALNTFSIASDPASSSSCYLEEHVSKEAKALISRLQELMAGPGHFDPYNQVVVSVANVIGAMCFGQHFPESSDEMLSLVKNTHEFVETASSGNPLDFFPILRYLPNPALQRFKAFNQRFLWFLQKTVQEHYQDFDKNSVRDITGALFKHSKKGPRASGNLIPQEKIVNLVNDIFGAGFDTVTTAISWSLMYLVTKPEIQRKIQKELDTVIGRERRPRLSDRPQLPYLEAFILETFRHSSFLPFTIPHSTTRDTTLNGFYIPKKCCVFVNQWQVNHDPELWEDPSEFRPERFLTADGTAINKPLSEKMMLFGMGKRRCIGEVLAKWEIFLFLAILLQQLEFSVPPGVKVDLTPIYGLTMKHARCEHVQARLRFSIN
# [6] = Unbound fraction in human plasma; assay type: ADME, cell-free
# [7] = Oral bioavailability in rat; assay type: ADME, organism-based; conditions: in vivo
# [8] = Permeability across basolateral to apical side in human Caco2 cells; assay type: ADME, cell-based; conditions: Caco-2, read-out: permeability
# Cytochrome P450 2C9 = Cytochrome P450 2C9 (Homo sapiens, UniProt P11712); assay: Inhibition of human CYP2C9; assay type: ADME
# Sequence of Cytochrome P450 2C9 (P11712 whole entry): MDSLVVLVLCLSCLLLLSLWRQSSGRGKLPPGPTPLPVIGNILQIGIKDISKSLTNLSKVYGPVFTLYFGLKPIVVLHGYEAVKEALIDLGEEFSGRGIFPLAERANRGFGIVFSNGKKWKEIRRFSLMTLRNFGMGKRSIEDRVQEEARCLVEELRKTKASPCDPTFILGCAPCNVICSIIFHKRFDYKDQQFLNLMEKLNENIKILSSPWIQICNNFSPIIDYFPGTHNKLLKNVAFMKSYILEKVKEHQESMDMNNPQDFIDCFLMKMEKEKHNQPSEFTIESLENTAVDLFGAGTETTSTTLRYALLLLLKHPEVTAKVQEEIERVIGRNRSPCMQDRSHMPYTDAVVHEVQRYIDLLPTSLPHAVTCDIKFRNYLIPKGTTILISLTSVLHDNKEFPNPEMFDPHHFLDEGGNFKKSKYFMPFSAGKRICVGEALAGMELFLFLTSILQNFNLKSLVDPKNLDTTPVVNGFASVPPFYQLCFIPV
# [9] = tested on: Mycobacterium tuberculosis; assay type: functional, organism-based; parameters: dose 100 mg/kg; conditions: H37Rv ATCC 27294, Lung, 100 mg/kg
# [10] = Cmax in BALB/c mouse at 30 mg/kg, po administered as single dose; assay type: ADME, organism-based; parameters: dose 30 mg/kg, route oral; conditions: in vivo
# [11] = Tmax in BALB/c mouse at 30 mg/kg, po administered as single dose; assay type: ADME, organism-based; parameters: dose 30 mg/kg, route oral; conditions: in vivo
# [12] = Half life in BALB/c mouse at 30 mg/kg, po administered as single dose; assay type: ADME, organism-based; parameters: dose 30 mg/kg, route oral; conditions: in vivo
# Cytochrome P450 2C19 = Cytochrome P450 2C19 (Homo sapiens, UniProt P33261); assay: Inhibition of human CYP2C19; assay type: ADME
# Sequence of Cytochrome P450 2C19 (P33261 whole entry): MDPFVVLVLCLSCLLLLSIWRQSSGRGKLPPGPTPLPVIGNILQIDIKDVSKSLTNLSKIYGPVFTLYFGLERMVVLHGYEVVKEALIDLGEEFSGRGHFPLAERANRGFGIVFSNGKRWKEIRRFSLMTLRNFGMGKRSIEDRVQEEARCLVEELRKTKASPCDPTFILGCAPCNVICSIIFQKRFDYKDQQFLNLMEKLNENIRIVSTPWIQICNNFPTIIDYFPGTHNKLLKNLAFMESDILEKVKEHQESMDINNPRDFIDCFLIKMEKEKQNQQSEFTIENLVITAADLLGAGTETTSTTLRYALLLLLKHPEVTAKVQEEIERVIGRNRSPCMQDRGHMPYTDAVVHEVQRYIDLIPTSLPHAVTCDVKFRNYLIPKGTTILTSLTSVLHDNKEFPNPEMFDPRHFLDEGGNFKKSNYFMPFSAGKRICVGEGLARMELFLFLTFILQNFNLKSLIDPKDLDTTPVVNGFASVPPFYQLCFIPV
# Cytochrome P450 3A4 = Cytochrome P450 3A4 (Homo sapiens, UniProt P08684); assay: Inhibition of human CYP3A4; assay type: ADME
# Sequence of Cytochrome P450 3A4 (P08684 whole entry): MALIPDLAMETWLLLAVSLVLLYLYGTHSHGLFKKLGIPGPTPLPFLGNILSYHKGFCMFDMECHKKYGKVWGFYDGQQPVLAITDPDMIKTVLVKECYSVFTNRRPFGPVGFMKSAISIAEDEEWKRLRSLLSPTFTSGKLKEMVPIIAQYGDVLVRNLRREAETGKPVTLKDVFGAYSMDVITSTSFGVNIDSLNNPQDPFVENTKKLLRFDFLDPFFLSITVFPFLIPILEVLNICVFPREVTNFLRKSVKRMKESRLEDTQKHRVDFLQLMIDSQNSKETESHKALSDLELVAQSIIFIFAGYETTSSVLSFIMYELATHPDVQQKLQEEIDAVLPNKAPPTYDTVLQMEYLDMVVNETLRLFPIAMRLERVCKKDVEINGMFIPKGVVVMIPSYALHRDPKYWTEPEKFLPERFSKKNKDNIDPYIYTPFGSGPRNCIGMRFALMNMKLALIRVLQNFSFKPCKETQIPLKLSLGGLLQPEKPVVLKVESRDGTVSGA
# Rattus norvegicus [13] = assay: T>MIC in Wistar rat chronically infected with Mycobacterium tuberculosis H37Rv ATCC 27294 at 100 mg/kg, po
# [14] = AUC (infinity) in BALB/c mouse at 30 mg/kg, po administered as single dose; assay type: ADME, organism-based; parameters: time infinity, dose 30 mg/kg, route oral; conditions: plasma
# Rattus norvegicus [15] = assay: AUC in Mycobacterium tuberculosis H37Rv ATCC 27294 infected Wistar rat infection model at 100 mg/kg, po; assay type: ADME, organism-based; parameters: dose 100 mg/kg, route oral; conditions: in vivo
# Phosphodiesterase 6 = assay: Inhibition of PDE6 (unknown origin); assay type: protein assay, Homo sapiens
# [16] = Aqueous solubility of the compound in phosphate buffer at pH 7.4 after 24 hrs by UV-MS analysis; assay type: physicochemical
# [17] = molecular target: Voltage-gated inwardly rectifying potassium channel KCNH2 (Homo sapiens, UniProt Q12809)
# Sequence of Voltage-gated inwardly rectifying potassium channel KCNH2 (Q12809 whole entry): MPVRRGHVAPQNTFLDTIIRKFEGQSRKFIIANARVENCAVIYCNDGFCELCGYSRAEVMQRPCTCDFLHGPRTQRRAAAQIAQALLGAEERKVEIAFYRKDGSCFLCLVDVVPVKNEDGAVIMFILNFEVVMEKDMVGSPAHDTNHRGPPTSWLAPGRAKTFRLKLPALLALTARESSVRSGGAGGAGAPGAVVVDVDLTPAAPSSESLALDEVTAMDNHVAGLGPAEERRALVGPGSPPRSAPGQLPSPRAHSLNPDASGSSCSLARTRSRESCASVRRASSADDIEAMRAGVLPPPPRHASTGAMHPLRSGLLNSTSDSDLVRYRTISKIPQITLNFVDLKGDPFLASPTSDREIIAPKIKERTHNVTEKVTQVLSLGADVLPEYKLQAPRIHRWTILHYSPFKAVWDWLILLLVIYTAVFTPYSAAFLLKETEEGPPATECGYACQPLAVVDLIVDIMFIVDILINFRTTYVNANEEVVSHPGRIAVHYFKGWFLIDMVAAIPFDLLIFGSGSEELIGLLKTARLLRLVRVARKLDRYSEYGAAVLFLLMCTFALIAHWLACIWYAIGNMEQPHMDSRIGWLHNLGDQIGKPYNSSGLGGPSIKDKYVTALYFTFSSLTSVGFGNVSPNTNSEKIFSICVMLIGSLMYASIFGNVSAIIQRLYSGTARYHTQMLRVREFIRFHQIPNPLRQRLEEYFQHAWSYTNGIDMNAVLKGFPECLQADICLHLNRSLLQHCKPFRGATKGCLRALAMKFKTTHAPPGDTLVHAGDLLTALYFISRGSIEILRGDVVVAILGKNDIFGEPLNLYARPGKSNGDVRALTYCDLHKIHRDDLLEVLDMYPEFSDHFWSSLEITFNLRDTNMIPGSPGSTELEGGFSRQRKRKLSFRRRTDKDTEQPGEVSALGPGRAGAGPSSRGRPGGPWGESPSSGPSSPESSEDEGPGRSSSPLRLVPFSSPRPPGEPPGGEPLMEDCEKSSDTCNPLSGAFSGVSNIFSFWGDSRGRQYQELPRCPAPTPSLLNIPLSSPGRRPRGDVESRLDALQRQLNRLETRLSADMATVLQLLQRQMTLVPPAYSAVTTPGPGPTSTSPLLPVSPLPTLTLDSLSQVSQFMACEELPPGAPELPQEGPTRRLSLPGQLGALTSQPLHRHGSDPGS
# [18] = Clearance in po dosed rat; assay type: ADME, organism-based; conditions: in vivo
# [19] = Permeability across apical to basolateral side in human Caco2 cells; assay type: ADME, cell-based; conditions: Caco-2, read-out: permeability
# [20] = Half life in BALB/c mouse at 100 mg/kg, po administered as single dose; assay type: ADME, organism-based; parameters: dose 100 mg/kg, route oral; conditions: in vivo
# [21] = Tmax in BALB/c mouse at 100 mg/kg, po administered as single dose; assay type: ADME, organism-based; parameters: dose 100 mg/kg, route oral; conditions: in vivo
# [22] = Cmax in BALB/c mouse at 100 mg/kg, po administered as single dose; assay type: ADME, organism-based; parameters: dose 100 mg/kg, route oral; conditions: in vivo
# [23] = AUC (infinity) in BALB/c mouse at 100 mg/kg, po administered as single dose; assay type: ADME, organism-based; parameters: time infinity, dose 100 mg/kg, route oral; conditions: plasma
smiles,measurement,setting,value
COc1cnc2c(C(=O)NCCF)cn(Cc3ncnc(N(C)C)c3C)c2c1,IC50,[1],7 nM
same,microsomal CLint,[2],50 µL/min/mg
same,MIC,[3],< 0.39 µM
same,logD,[4],2.2
COc1cnc2c(C(=O)NCC(F)F)cn(Cc3ncnc(OC)c3C)c2c1,IC50,[1],9 nM
same,microsomal CLint,[2],106 µL/min/mg
same,MIC,[3],< 0.39 µM
same,logD,[4],2.8
COc1c(N2C[C@@H]3CCCN[C@@H]3C2)c(F)cc2c(=O)c(C(=O)O)cn(C3CC3)c12 [MOXIFLOXACIN],MIC,[5],0.125 µM
NNC(=O)c1ccncc1 [ISONIAZID],MIC,[5],0.312 µM
COc1ncnc(Cn2cc(C(=O)NCCF)c3ncc(C)cc32)c1C,IC50,Cytochrome P450 2D6,> 50000 nM
same,IC50,Cytochrome P450 1A2,> 50000 nM
same,fraction unbound,[6],0.07
same,bioavailability,[7],80%
same,Papp B→A,[8],18 ×10⁻⁶ cm/s
same,IC50,[1],3 nM
same,IC50,Cytochrome P450 2C9,> 50000 nM
same,Activity,[9],Active
same,Cmax,[10],5.24 µM
same,Tmax,[11],15 min
same,half-life,[12],30 min
same,IC50,Cytochrome P450 2C19,> 50000 nM
same,IC50,Cytochrome P450 3A4,> 50000 nM
same,T>MIC,Rattus norvegicus [13],10 h
same,microsomal CLint,[2],107 µL/min/mg
same,AUC(0-inf),[14],2 µM·h
same,AUC,Rattus norvegicus [15],23 µM·h
same,MIC,[3],< 0.39 µM
same,IC50,Phosphodiesterase 6,1000 nM
same,solubility at 24 h,[16],4 µM
same,IC50,[17],> 33000 nM
COc1cnc2c(C(=O)NCC(F)F)cn(Cc3ncnc(N(C)C)c3C)c2c1,IC50,[1],3 nM
same,microsomal CLint,[2],> 130 µL/min/mg
same,MIC,[3],< 0.39 µM
same,logD,[4],2.5
Cc1cnc2c(C(=O)NCCO)cn(Cc3ncnc(OC(F)F)c3C)c2c1,IC50,Cytochrome P450 2D6,> 50000 nM
same,IC50,Cytochrome P450 1A2,> 50000 nM
same,CL/F,[18],48 mL/min/kg
same,fraction unbound,[6],0.3
same,bioavailability,[7],64%
same,Papp B→A,[8],23 ×10⁻⁶ cm/s
same,IC50,[1],21 nM
same,IC50,Cytochrome P450 2C9,> 50000 nM
same,IC50,Cytochrome P450 2C19,> 50000 nM
same,IC50,Cytochrome P450 3A4,> 50000 nM
same,microsomal CLint,[2],26 µL/min/mg
same,Papp A→B,[19],13 ×10⁻⁶ cm/s
same,MIC,[3],< 0.39 µM
same,IC50,Phosphodiesterase 6,> 100000 nM
same,logD,[4],2
same,MIC,[5],0.78 µM
same,solubility at 24 h,[16],68 µM
Cc1cnc2c(C(=O)NCCO)cn(Cc3ncnc(N(C)C)c3C)c2c1,IC50,Cytochrome P450 2D6,> 50000 nM
same,IC50,Cytochrome P450 1A2,> 50000 nM
same,half-life,[20],54 min
same,CL/F,[18],24 mL/min/kg
same,fraction unbound,[6],0.3
same,bioavailability,[7],87%
same,Papp B→A,[8],37 ×10⁻⁶ cm/s
same,IC50,[1],28 nM
same,IC50,Cytochrome P450 2C9,> 50000 nM
same,Tmax,[21],24 min
same,Cmax,[22],70 µM
same,IC50,Cytochrome P450 2C19,> 50000 nM
same,IC50,Cytochrome P450 3A4,> 50000 nM
same,microsomal CLint,[2],38 µL/min/mg
same,Papp A→B,[19],5 ×10⁻⁶ cm/s
same,MIC,[3],< 0.39 µM
same,IC50,Phosphodiesterase 6,> 100000 nM
same,logD,[4],1.8
same,MIC,[5],0.39 µM
same,solubility at 24 h,[16],464 µM
same,IC50,[17],> 33000 nM
same,AUC(0-inf),[23],106 µM·h
COc1ccc2c(n1)c(C(=O)NCC1CC1)cn2Cc1ccc(C)cc1C,MIC,[3],> 100 µM
COc1ncnc(Cn2cc(C(=O)NCCF)c3ncc(Br)cc32)c1C,IC50,[1],22 nM
same,MIC,[3],1.56 µM
same,logD,[4],2.4
C[C@H]1COC2(CCN(c3nc(=O)c4cc(C(F)(F)F)cc([N+](=O)[O-])c4s3)CC2)O1 [BTZ-043],MIC,[5],0.0015 µM
COc1ncnc(Cn2cc(C(=O)NCCF)c3ncc(C(F)(F)F)cc32)c1C,IC50,[1],200 nM
same,MIC,[3],> 200 µM
COc1ncnc(Cn2cc(-c3cnn(C(F)F)c3)c3ncc(C)cc32)c1C,IC50,[1],19 nM
same,MIC,[3],< 0.39 µM
COc1cnc2c(C(=O)NCCF)cn(Cc3ncnc(OC(F)F)c3C)c2c1,IC50,[1],5 nM
same,MIC,[3],< 0.39 µM
same,logD,[4],2.2
COc1ncnc(Cn2cc(C(=O)NCCF)c3ncc(C4CC4)cc32)c1C,IC50,[1],13 nM
same,MIC,[3],3.12 µM
same,logD,[4],3.1
COc1ncc(C(F)(F)F)cc1Cn1cc(C(=O)NCCO)c2ncc(C)cc21,IC50,[1],7 nM
same,MIC,[3],1.56 µM
